In patent publication US11596639B2, “Substituted indole Mcl-1 inhibitors” (Vanderbilt University, priority 2016, dated 2023):
Like-named read-outs stand apart in the source and are kept apart here.

Columns and labels:
[1] = tested on: H929 human cancer cell lines; test: Cellular viability / proliferation (Cell TiterGlo, 72 h); assay type: cell-based
Outline: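 Compounds were added as 2-fold serial dilutions from 50 μM (final DMSO <1%) to H929 cells seeded 1,000 per well in 10% FBS medium one day earlier.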

Mcl-1 = Mcl-1 (Homo sapiens (Human), UniProt Q07820); test: TR-FRET binding assay, FITC-Bak peptide and MBP-tagged Mcl-1; settings: read-out: Ki for Inhibition of Mcl-1 by TR-FRET assay
Sequence of Mcl-1 (Q07820 172-327): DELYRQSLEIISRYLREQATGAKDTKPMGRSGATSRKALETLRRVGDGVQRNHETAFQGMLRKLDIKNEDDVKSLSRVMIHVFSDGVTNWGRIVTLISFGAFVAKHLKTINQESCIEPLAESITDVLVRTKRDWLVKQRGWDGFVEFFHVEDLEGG
Protocol: Compounds are diluted in DMSO in a 16-point, semilog serial dilution scheme. […] The plate was mixed and incubated for 3 hours at room temperature. […] TR-FRET signal is plotted and IC50 and Ki values are calculated in the same manner as the fluorescence polarization anisotropy based competition assays.

[2] = Homo sapiens, NCI-H929, 72 h, read-out: GI50 on cellular proliferation of H929 human cancer cell lines, H929 cells, 72 h, Cell TiterGlo, 10% FBS

SMILES | GI50 [1, 2] [nM] | Ki (Mcl-1) [nM] | GI50 ([1]; H929 cells, 72 h, Cell TiterGlo, 10% FBS, read-out: GI50 on cellular proliferation of H929 human cancer cell lines) [nM]
Cc1cc(OCCCc2c3n(c4c(-c5c(C)nn(C)c5C)c(Cl)ccc24)[C@H](C)CN(c2cc(COCCN(C)C)cc4cc(C(=O)O)n(C)c24)C3=O)cc(C)c1Cl [Example 614, (R)-7-(7-chloro-10-(3-(4-chloro-3,5-dimethylphenoxy)propyl)-4-methyl-1-oxo-6-(1,3,5-trimethyl-1H-pyrazol-4-yl)-3,4-dihydropyrazino[1,2-a]indol-2(1H)-yl)-5-((2-(dimethylamino)ethoxy)methyl)-1-methyl-1H-indole-2-carboxylic acid] | 690 | < 0.2 | 
Cc1cc(OCCCc2c3n(c4c(-c5c(C)nn(C)c5C)c(Cl)ccc24)[C@H](C)CN(c2cn(C)c4ccc(-c5nc6cccc(C)n6n5)cc24)C3=O)cc(C)c1Cl [Example 696, (R)-7-Chloro-10-(3-(4-chloro-3,5-dimethylphenoxy)propyl)-4-methyl-2-(1-methyl-5-(5-methyl-[1,2,4]triazolo[1,5-a]pyridin-2-yl)-1H-indol-3-yl)-6-(1,3,5-trimethyl-1H-pyrazol-4-yl)-3,4-dihydropyrazino[1,2-a]indol-1(2H)-one] | 1400 | 1.1 | 
Cc1cc(OCCCc2c3n(c4c(-c5c(C)nn(C)c5C)c(Cl)ccc24)[C@H](C)CN(c2cc(OCCN(C)C)cc4cc(C(=O)O)n(Cc5ccccn5)c24)C3=O)cc(C)c1Cl [Example 590, (R)-7-(7-chloro-10-(3-(4-chloro-3,5-dimethylphenoxy)propyl)-4-methyl-1-oxo-6-(1,3,5-trimethyl-1H-pyrazol-4-yl)-3,4-dihydropyrazino[1,2-a]indol-2(1H)-yl)-5-(2-(dimethylamino)ethoxy)-1-(pyridin-2-ylmethyl)-1H-indole-2-carboxylic acid] | 670 | < 0.2 | 
Cc1cc(OCCCc2c3n(c4c(-c5c(C)nn(C)c5C)c(Cl)ccc24)[C@H](C)CN(c2cc(OC4CCN(C)CC4)cc4cc(C(=O)O)n(C)c24)C3=O)cc(C)c1Cl [Example 519, (R)-7-(7-chloro-10-(3-(4-chloro-3,5-dimethylphenoxy)propyl)-4-methyl-1-oxo-6-(1,3,5-trimethyl-1H-pyrazol-4-yl)-3,4-dihydropyrazino[1,2-a]indol-2(1H)-yl)-1-methyl-5-((1-methylpiperidin-4-yl)oxy)-1H-indole-2-carboxylic acid] | 990 | 0.46 | 
COCCn1c(C(=O)O)cc2cc(OC)cc(N3C[C@@H](C)n4c(c(CCCOc5cc(C)c(Cl)c(C)c5)c5ccc(Cl)c(-c6c(C)nn(C)c6C)c54)C3=O)c21 [Example 665, (R)-7-(7-chloro-10-(3-(4-chloro-3,5-dimethylphenoxy)propyl)-4-methyl-1-oxo-6-(1,3,5-trimethyl-1H-pyrazol-4-yl)-3,4-dihydropyrazino[1,2-a]indol-2(1H)-yl)-5-methoxy-1-(2-methoxyethyl)-1H-indole-2-carboxylic acid] | 280 | < 0.2 | 
Cc1cccc(Cn2cc(C(=O)O)c3cccc(N4C[C@@H](C)n5c(c(CCCOc6cc(C)c(Cl)c(C)c6)c6ccc(Cl)c(-c7c(C)nn(C)c7C)c65)C4=O)c32)n1 (single isomer, unassigned) [Example 491] | 280 | < 0.2 | 
COCc1nc(-c2ccc3c(c2)c(N2C[C@@H](C)n4c(c(CCCOc5cc(C)c(Cl)c(C)c5)c5ccc(Cl)c(-c6c(C)nn(C)c6C)c54)C2=O)cn3C)nn1C [Example 674, (R)-7-Chloro-10-(3-(4-chloro-3,5-dimethylphenoxy)propyl)-2-(5-(5-(methoxymethyl)-1-methyl-1H-1,2,4-triazol-3-yl)-1-methyl-1H-indol-3-yl)-4-methyl-6-(1,3,5-trimethyl-1H-pyrazol-4-yl)-3,4-dihydropyrazino[1,2-a]indol-1(2H)-one] | 210 | 2.1 | 
Cc1cc(OCCCc2c3n(c4c(-c5c(C)ncnc5C)c(Cl)ccc24)[C@H](C)CN(c2cn(C)c4ncc(C(=O)O)nc24)C3=O)cc(C)c1Cl [Example 644, (R)-7-(7-chloro-10(3-(4-chloro-3,5-dimethylphenoxy)propyl)-6-(4,6-dimethylpyrimidin-5-yl)-4-methyl-1-oxo-3,4-dihydropyrazino[1,2-a]indol-2(1H)-yl)-5-methyl-5H-pyrrolo[2,3-b]pyrazine-2-carboxylic acid] | 1900 | < 0.2 | 
Cc1cc(N2C[C@@H](C)n3c(c(CCCOc4cc(C)c(Cl)c(C)c4)c4ccc(Cl)c(-c5c(C)nn(C)c5C)c43)C2=O)c2c(c1)cc(C(=O)O)n2Cc1cc(N2CCOCC2)ccn1 [Example 500, (R)-7-(7-chloro-10-(3-(4-chloro-3,5-dimethylphenoxy)propyl)-4-methyl-1-oxo-6-(1,3,5-trimethyl-1H-pyrazol-4-yl)-3,4-dihydropyrazino[1,2-a]indol-2(1H)-yl)-5-methyl-1-((4-morpholinopyridin-2-yl)methyl)-1H-indole-2-carboxylic acid] | 330 | < 0.2 | 
COCCOCCOc1cc(N2C[C@@H](C)n3c(c(CCCOc4cc(C)c(Cl)c(C)c4)c4ccc(Cl)c(-c5c(C)nn(C)c5C)c43)C2=O)c2c(c1)cc(C(=O)O)n2C [Example 633, (R)-7-(7-chloro-10-(3-(4-chloro-3,5-dimethylphenoxy)propyl)-4-methyl-1-oxo-6-(1,3,5-trimethyl-1H-pyrazol-4-yl)-3,4-dihydropyrazino[1,2-a]indol-2(1H)-yl)-5-(2-(2-methoxyethoxy)ethoxy)-1-methyl-1H-indole-2-carboxylic acid] |  | < 0.2 | < 200
Cc1ccnc(Cn2cc(C(=O)O)c3cccc(N4C[C@@H](C)n5c(c(CCCOc6cc(C)c(Cl)c(C)c6)c6ccc(Cl)c(-c7c(C)nn(C)c7C)c65)C4=O)c32)c1 [Example 480, (R)-7-(7-Chloro-10-(3-(4-chloro-3,5-dimethylphenoxy)propyl)-4-methyl-1-oxo-6-(1,3,5-trimethyl-1H-pyrazol-4-yl)-3,4-dihydropyrazino[1,2-a]indol-2(1H)-yl)-1-((4-methylpyridin-2-yl)methyl)-1H-indole-3-carboxylic acid] | 250 | < 0.2 | 
Cc1cc(OCCCc2c3n(c4c(-c5c(C)nn(C)c5C)c(Cl)ccc24)[C@H](C)CN(c2cn(Cc4cscn4)c4ccc(C(=O)O)cc24)C3=O)cc(C)c1Cl [Example 532, (R)-3-(7-Chloro-10-(3-(4-chloro-3,5-dimethylphenoxy)propyl)-4-methyl-1-oxo-6-(1,3,5-trimethyl-1H-pyrazol-4-yl)-3,4-dihydropyrazino[1,2-a]indol-2(1H)-yl)-1-(thiazol-4-ylmethyl)-1H-indole-5-carboxylic acid] | 390 | 0.2 | 
COCCOc1ccc(N2C[C@@H](C)n3c(c(CCCOc4cc(C)c(Cl)c(C)c4)c4ccc(Cl)c(-c5c(C)nn(C)c5C)c43)C2=O)c2c1cc(C(=O)O)n2Cc1cc(C)ccn1 [Example 632, (R)-7-(7-chloro-10-(3-(4-chloro-3,5-dimethylphenoxy)propyl)-4-methyl-1-oxo-6-(1,3,5-trimethyl-1H-pyrazol-4-yl)-3,4-dihydropyrazino[1,2-a]indol-2(1H)-yl)-4-(2-methoxyethoxy)-1-((4-methylpyridin-2-yl)methyl)-1H-indole-2-carboxylic acid] | 220 | < 0.2 | 
Cc1cc(OCCCc2c3n(c4c(-c5c(C)ncnc5C)c(Cl)ccc24)[C@H](C)CN(c2cc(OCCN4CCOCC4)cc4cc(C(=O)O)n(C)c24)C3=O)cc(C)c1Cl [Example 558, (R)-7-(7-chloro-10-(3-(4-chloro-3,5-dimethylphenoxy)propyl)-6-(4,6-dimethylpyrimidin-5-yl)-4-methyl-1-oxo-3,4-dihydropyrazino[1,2-a]indol-2(1H)-yl)-1-methyl-5-(2-morpholinoethoxy)-1H-indole-2-carboxylic acid] | 310 | < 0.2 | 
COc1ccc(N2C[C@@H](C)n3c(c(CCCOc4cc(C)c(Cl)c(C)c4)c4ccc(Cl)c(-c5c(C)nn(C)c5C)c43)C2=O)c2c1c(C(=O)O)cn2Cc1cc(C)ccn1 [Example 619, (R)-7-(7-chloro-10-(3-(4-chloro-3,5-dimethylphenoxy)propyl)-4-methyl-1-oxo-6-(1,3,5-trimethyl-1H-pyrazol-4-yl)-3,4-dihydropyrazino[1,2-a]indol-2(1H)-yl)-4-methoxy-1-((4-methylpyridin-2-yl)methyl)-1H-indole-3-carboxylic acid] | 470 | 0.26 | 
C=C(C)c1ccnc(Cn2c(C(=O)O)cc3cc(C)cc(N4C[C@@H](C)n5c(c(CCCOc6cc(C)c(Cl)c(C)c6)c6ccc(Cl)c(-c7c(C)nn(C)c7C)c65)C4=O)c32)c1 [Example 641, (R)-7-(7-chloro-10-(3-(4-chloro-3,5-dimethylphenoxy)propyl)-4-methyl-1-oxo-6-(1,3,5-trimethyl-1H-pyrazol-4-yl)-3,4-dihydropyrazino[1,2-a]indol-2(1H)-yl)-5-methyl-1-((4-(prop-1-en-2-yl)pyridin-2-yl)methyl)-1H-indole-2-carboxylic acid] | 350 | < 0.2 | 
COc1cc(N2C[C@@H](C)n3c(c(CCCOc4cc(C)c(Cl)c(C)c4)c4ccc(Cl)c(-c5c(C)ncnc5C)c43)C2=O)c2c(c1)cc(C(=O)O)n2Cc1cccc(C)n1 [Example 572, (R)-7-(7-chloro-10-(3-(4-chloro-3,5-dimethylphenoxy)propyl)-6-(4,6-dimethylpyrimidin-5-yl)-4-methyl-1-oxo-3,4-dihydropyrazino[1,2-a]indol-2(1H)-yl)-5-methoxy-1-((6-methylpyridin-2-yl)methyl)-1H-indole-2-carboxylic acid] | 300 | < 0.2 | 
